Source: PubChem BioAssay AID256 (DTP/NCI, 2004)
Toxic doses and inconclusive results are not listed. Rule for the calls: active = survival T/C of 150% or more; inactive = T/C below 125% in these data.

System: CD2F1 mice, L1210 leukemia ip, survival T/C
Assay: NCI In Vivo Anticancer Drug Screen. Data for tumor model L1210 Leukemia (intraperitoneal) in CD2F1 (CDF1) mice
Details: higher = longer survival
In short: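 Ratio T/C, where T is the treated-group value and C the vehicle-dosed control value, from mice implanted with a transplantable tumor.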

[1] = endpoint: mean survival time, dose: 100.0 mg/kg/injection, schedule: Q04DX003 (ip), vehicle: saline with Tween-80
[2] = endpoint: mean survival time, dose: 200.0 mg/kg/injection, schedule: Q04DX003 (ip), vehicle: saline with Tween-80
[3] = endpoint: mean survival time, dose: 400.0 mg/kg/injection, schedule: Q04DX003 (ip), vehicle: saline with Tween-80
[4] = endpoint: mean survival time, dose: 100.0 mg/kg/injection, schedule: Q01DX001 (ip), vehicle: Klucel (hydroxypropylcellulose) (HPC)
[5] = endpoint: mean survival time, dose: 200.0 mg/kg/injection, schedule: Q01DX001 (ip), vehicle: Klucel (hydroxypropylcellulose) (HPC)
[6] = endpoint: mean survival time, dose: 100.0 mg/kg/injection, schedule: Q01DX009 (ip), vehicle: saline with Tween-80
[7] = endpoint: mean survival time, dose: 200.0 mg/kg/injection, schedule: Q01DX009 (ip), vehicle: saline with Tween-80
[8] = endpoint: mean survival time, dose: 400.0 mg/kg/injection, schedule: Q01DX009 (ip), vehicle: saline with Tween-80
[9] = endpoint: mean survival time, dose: 25.0 mg/kg/injection, schedule: Q01DX009 (ip), vehicle: saline
[10] = endpoint: mean survival time, dose: 50.0 mg/kg/injection, schedule: Q01DX005 (ip), vehicle: water
[11] = endpoint: mean survival time, dose: 100.0 mg/kg/injection, schedule: Q01DX005 (ip), vehicle: water
[12] = endpoint: mean survival time, dose: 200.0 mg/kg/injection, schedule: Q01DX005 (ip), vehicle: water
[13] = endpoint: mean survival time, dose: 100.0 mg/kg/injection, schedule: Q04DX002 (ip), vehicle: saline with Tween-80
[14] = endpoint: mean survival time, dose: 200.0 mg/kg/injection, schedule: Q04DX002 (ip), vehicle: saline with Tween-80
[15] = endpoint: mean survival time, dose: 6.25 mg/kg/injection, schedule: Q01DX009 (ip), vehicle: saline
[16] = endpoint: mean survival time, dose: 6.25 mg/kg/injection, schedule: Q04DX003 (ip), vehicle: saline with Tween-80
[17] = endpoint: mean survival time, dose: 12.5 mg/kg/injection, schedule: Q01DX009 (ip), vehicle: saline
[18] = endpoint: mean survival time, dose: 12.5 mg/kg/injection, schedule: Q04DX003 (ip), vehicle: saline with Tween-80
[19] = endpoint: mean survival time, dose: 25.0 mg/kg/injection, schedule: Q04DX003 (ip), vehicle: saline with Tween-80

Measured: T/C

Cc1[nH]c2ccccc2c1C1=CC(=O)c2ccccc2C1=O
inactive: [1] 106 % of control | [2] 104 % of control | [3] 104 % of control

CCOC(=O)Nc1cc2c(c(N)n1)NC(CN(C)c1ccccc1)CN2 (centres undefined)
inactive: [4] 94 % of control | [5] 103 % of control | endpoint: mean survival time, dose: 400.0 mg/kg/injection, schedule: Q01DX001 (ip), vehicle: Klucel (hydroxypropylcellulose) (HPC) 110 % of control

c1cc2c3c(c1)CCC3CCC2 (centres undefined)
inactive: [6] 96 % of control | [7] 101 % of control | [8] 90 % of control

COC(=O)c1c(CC#N)ncn1C1OC(COC(C)=O)C(OC(C)=O)C1OC(C)=O (centres undefined)
inactive: endpoint: median survival time, dose: 8.25 mg/kg/injection, schedule: Q01DX005 (ip), vehicle: water 104 % of control | endpoint: median survival time, dose: 11.25 mg/kg/injection, schedule: Q01DX005 (ip), vehicle: water 100 % of control | endpoint: median survival time, dose: 16.5 mg/kg/injection, schedule: Q01DX005 (ip), vehicle: water 101 % of control | endpoint: median survival time, dose: 22.5 mg/kg/injection, schedule: Q01DX005 (ip), vehicle: water 98 % of control | endpoint: median survival time, dose: 33.0 mg/kg/injection, schedule: Q01DX005 (ip), vehicle: water 101 % of control | endpoint: median survival time, dose: 45.0 mg/kg/injection, schedule: Q01DX005 (ip), vehicle: water 101 % of control | endpoint: median survival time, dose: 66.0 mg/kg/injection, schedule: Q01DX005 (ip), vehicle: water 100 % of control | endpoint: median survival time, dose: 90.0 mg/kg/injection, schedule: Q01DX005 (ip), vehicle: water 100 % of control | endpoint: median survival time, dose: 132.0 mg/kg/injection, schedule: Q01DX005 (ip), vehicle: water 101 % of control | endpoint: median survival time, dose: 180.0 mg/kg/injection, schedule: Q01DX005 (ip), vehicle: water 100 % of control

Nc1ccc2nsnc2c1
inactive: endpoint: mean survival time, dose: 50.0 mg/kg/injection, schedule: Q01DX001 (ip), vehicle: Klucel (hydroxypropylcellulose) (HPC) 105 % of control | [4] 90 % of control | [5] 103 % of control

Cc1ccc(S(=O)(=O)/C=C(\I)c2ccc([N+](=O)[O-])cc2)cc1
inactive: endpoint: mean survival time, dose: 50.0 mg/kg/injection, schedule: Q04DX003 (ip), vehicle: saline 96 % of control | endpoint: mean survival time, dose: 100.0 mg/kg/injection, schedule: Q04DX003 (ip), vehicle: saline 87 % of control

CCCCCCCCCSCC
inactive: [6] 100 % of control | [7] 100 % of control | [8] 88 % of control

CC#CC(C)=O
inactive: [9] 93 % of control | endpoint: mean survival time, dose: 50.0 mg/kg/injection, schedule: Q01DX009 (ip), vehicle: saline 96 % of control | endpoint: mean survival time, dose: 100.0 mg/kg/injection, schedule: Q01DX009 (ip), vehicle: saline 97 % of control

CCOC(=O)CC(O)c1ccccc1 (centres undefined)
inactive: endpoint: mean survival time, dose: 50.0 mg/kg/injection, schedule: Q01DX009 (ip), vehicle: saline with Tween-80 102 % of control | [6] 102 % of control | [7] 98 % of control

Cc1cn(C2OC(CO)C(O)C2O)c([Se])nc1=O (centres undefined)
inactive: [10] 97 % of control | [11] 90 % of control | [12] 90 % of control

CC(C)(C)N(Cc1ccccc1)Cc1ccccc1
inactive: [6] 102 % of control | [7] 98 % of control | [8] 101 % of control

Cc1ccccc1/C1=C/CCCCCC1
inactive: endpoint: mean survival time, dose: 100.0 mg/kg/injection, schedule: Q01DX001 (ip), vehicle: saline sonified 107 % of control | [1] 102 % of control | endpoint: mean survival time, dose: 200.0 mg/kg/injection, schedule: Q01DX001 (ip), vehicle: saline sonified 94 % of control | [2] 104 % of control | endpoint: mean survival time, dose: 400.0 mg/kg/injection, schedule: Q01DX001 (ip), vehicle: saline sonified 89 % of control | [3] 93 % of control

C[n+]1c2ccccc2c(Cl)c2ccccc21
inactive: endpoint: mean survival time, dose: 100.0 mg/kg/injection, schedule: Q01DX001 (ip), vehicle: saline with Tween-80 104 % of control | endpoint: mean survival time, dose: 200.0 mg/kg/injection, schedule: Q01DX001 (ip), vehicle: saline with Tween-80 109 % of control

NC(=S)N/N=C\c1nccc2c(C(F)(F)F)cccc12
inactive: [13] 124 % of control | [14] 89 % of control

CC1(C)CC(=O)C2(CNC3=C(CCC(C)(C)C3)C2)C(=O)C1
inactive: endpoint: mean survival time, dose: 50.0 mg/kg/injection, schedule: Q04DX002 (ip), vehicle: saline with Tween-80 91 % of control | [13] 91 % of control | [14] 100 % of control | endpoint: mean survival time, dose: 400.0 mg/kg/injection, schedule: Q04DX002 (ip), vehicle: saline with Tween-80 91 % of control

COc1ccc2ccc[n+](C)c2c1
inactive: [15] 94 % of control | [16] 98 % of control | [17] 104 % of control | [18] 101 % of control | [9] 107 % of control | [19] 101 % of control

CCN(CC)C(=O)c1cccc(COc2ccc(N3C(N)=NC(N)=NC3(C)C)cc2Cl)c1
inactive: endpoint: mean survival time, dose: 0.2 mg/kg/injection, schedule: Q01DX009 (ip), vehicle: saline 98 % of control | endpoint: mean survival time, dose: 0.4 mg/kg/injection, schedule: Q01DX009 (ip), vehicle: saline 98 % of control | endpoint: mean survival time, dose: 0.8 mg/kg/injection, schedule: Q01DX009 (ip), vehicle: saline 100 % of control | endpoint: mean survival time, dose: 1.56 mg/kg/injection, schedule: Q01DX009 (ip), vehicle: saline 96 % of control | endpoint: mean survival time, dose: 3.13 mg/kg/injection, schedule: Q01DX009 (ip), vehicle: saline 100 % of control | [15] 96 % of control | [17] 100 % of control

O=C(O)CNS(=O)(=O)c1ccccc1
inactive: [1] 98 % of control | [2] 101 % of control | [3] 93 % of control

C=CC(=O)O
inactive: endpoint: mean survival time, dose: 1.56 mg/kg/injection, schedule: Q04DX003 (ip), vehicle: saline with Tween-80 107 % of control | endpoint: mean survival time, dose: 3.12 mg/kg/injection, schedule: Q04DX003 (ip), vehicle: saline with Tween-80 109 % of control | endpoint: mean survival time, dose: 6.25 mg/kg/injection, schedule: Q01DX009 (ip), vehicle: saline with Tween-80 97 % of control | endpoint: mean survival time, dose: 6.25 mg/kg/injection, schedule: Q04DX003 (ip), vehicle: Klucel (hydroxypropylcellulose) (HPC) 90 % of control | [16] 101 % of control | endpoint: mean survival time, dose: 9.2 mg/kg/injection, schedule: Q01DX009 (ip), vehicle: acetone 89 % of control | endpoint: mean survival time, dose: 12.5 mg/kg/injection, schedule: Q01DX009 (ip), vehicle: saline with Tween-80 92 % of control | endpoint: mean survival time, dose: 12.5 mg/kg/injection, schedule: Q04DX003 (ip), vehicle: Klucel (hydroxypropylcellulose) (HPC) 96 % of control | [18] 91 % of control | [19] 97 % of control

CSc1ccc(C(c2ccc(SC)cc2)C(Cl)(Cl)Cl)cc1
inactive: endpoint: mean survival time, dose: 50.0 mg/kg/injection, schedule: Q04DX003 (ip), vehicle: saline with Tween-80 91 % of control | [1] 89 % of control

Cc1cn(C2CC3OP(=O)(N(C)C)OCC3O2)c(=O)[nH]c1=O (centres undefined)
inactive: endpoint: mean survival time, dose: 12.5 mg/kg/injection, schedule: Q01DX005 (ip), vehicle: water 105 % of control | endpoint: mean survival time, dose: 25.0 mg/kg/injection, schedule: Q01DX005 (ip), vehicle: water 100 % of control | [10] 109 % of control | [11] 97 % of control | [12] 103 % of control

COC(=O)CCC(=O)c1ccc(OC)cc1
inactive: endpoint: mean survival time, dose: 100.0 mg/kg/injection, schedule: Q01DX001 (ip), vehicle: alcohol 92 % of control | endpoint: mean survival time, dose: 200.0 mg/kg/injection, schedule: Q01DX001 (ip), vehicle: alcohol 92 % of control | endpoint: mean survival time, dose: 400.0 mg/kg/injection, schedule: Q01DX001 (ip), vehicle: alcohol 101 % of control

C1=CSC(=C2SC=CS2)S1
inactive: [1] 95 % of control | [2] 102 % of control

CCCCCCCCCCCCCCCC(=O)N(CCCN(CC)CC)C(C)CCCN(CC)CC (centres undefined)
inactive: endpoint: mean survival time, dose: 1.56 mg/kg/injection, schedule: Q01DX009 (ip), vehicle: water 102 % of control | endpoint: mean survival time, dose: 3.13 mg/kg/injection, schedule: Q01DX009 (ip), vehicle: water 100 % of control | endpoint: mean survival time, dose: 6.25 mg/kg/injection, schedule: Q01DX009 (ip), vehicle: water 96 % of control

CCCC1C(CC)C=NN1C (centres undefined)
inactive: endpoint: mean survival time, dose: 100.0 mg/kg/injection, schedule: Q01DX001 (ip), vehicle: saline 102 % of control | endpoint: mean survival time, dose: 200.0 mg/kg/injection, schedule: Q01DX001 (ip), vehicle: saline 101 % of control | endpoint: mean survival time, dose: 400.0 mg/kg/injection, schedule: Q01DX001 (ip), vehicle: saline 98 % of control

CCCCCC(C)(C#N)CCCCC
inactive: [6] 105 % of control | [7] 103 % of control
